Assay type in all cases: in vivo, rat
Data set [1] deals with Zucker diabetic fatty rats. The experiment in a line: Cycle of one week full coverage followed by four weeks of reduced dosage (Example 1(b)). The conditions noted are these: one week full coverage (3 mg/kg) followed by four weeks of reduced dosage (0.3 mg/kg).
Data set [2] has as its system Zucker diabetic fatty rats. Put plainly: Intermittent administration of compound A (Example 2): blood glucose level, red blood cell count, heart weight. The conditions noted are these: for blood glucose level: FIG. 4; for red blood cell count: FIG. 5; for heart weight: FIG. 6. From the text: Zucker diabetic fatty rats (9-week-old, from Charles River Laboratories Japan, Inc.) were used in the experiment. The rats were divided into 3 groups so that body weight, blood glucose level, and red blood cell count may each be uniform among the groups, and each of these groups served as a control group, an intermittent treatment group, or a continuous treatment group (n=4 to 5). Food (FR2, from Funabashi Nojo) and water were given ad libitum during the testing period. A 0.5% carboxymethyl cellulose (CMC) solution only was administered to the control group, and a CMC suspension of compound A was forcibly orally administered to the intermittent treatment group and continuous treatment group according to the regimen described below. For the intermittent treatment group, compound A was repeatedly given in a dose of 1 mg/kg once a day for one week before decreasing the administration thereof to twice a week to administer it for a further two weeks (dosing days: days 0 to 7, 10, 14, and 17). In this respect, the CMC solution was given on the days when compound A was not administered. For the continuous treatment group, 1 mg/kg was repeatedly administered once a day for three weeks. Blood was collected at days 0, 2, 5, 7, 9, 12, 14, 16, 19, and 21 when the start date of dosing was shown as day 0, using a capillary tube treated with heparin, and blood glucose level and blood cell parameters were determined using an autoanalyzer (blood glucose level: Glucoroder GX-T from A&T Corporation, blood cell parameters: KX-21N from Sysmex Corporation)

Data set [3] deals with Zucker diabetic fatty rats. Put plainly: Administration of the effective and low doses of compound A in combination (Example 1(a)): blood glucose level, red blood cell count, heart weight. The conditions noted are these: for red blood cell count: FIG. 2; for heart weight: FIG. 3; for blood glucose level (mean) after the decrease to the low dose: oral once a day, from the 14th day on. From the text:
Zucker diabetic fatty rats (9-week-old, from Charles River Laboratories Japan, Inc.) were used in the experiment. The rats were divided into 4 groups of 5 individuals each so that body weight, blood glucose level, and red blood cell count may each be uniform among the groups, and each of these groups served as a low-dose treatment group (Ia), a low-dose treatment group (Ib), a continuous treatment group, or a control group. Food (FR2, from Funabashi Nojo) and water were given ad libitum during the testing period. A 0.5% carboxymethyl cellulose (CMC) solution only was administered to the control group, and a CMC suspension of compound A was orally administered to all of the other groups, once a day in doses described below. For the low-dose treatment group (Ia), it was administered at 3 mg/kg for 2 weeks and then at a decreased dose of 0.03 mg/kg for a further 3 weeks. For the low-dose treatment group (Ib), it was administered at 3 mg/kg for 2 weeks and then at a decreased dose of 0.3 mg/kg for a further 3 weeks. For the continuous treatment group, 3 mg/kg was administered for 5 weeks. Blood was collected every 7 days from the start of administration using a capillary tube treated with heparin and EDTA, and blood glucose level and blood cell parameters were determined using an autoanalyzer (blood glucose level: Glucoroder GX-T from A&T Corporation), blood cell parameters: KX-21N from Sysmex Corporation).

Setting [4] is: continuous treatment group: 1 mg/kg orally once a day for three weeks.
Setting [5] is: intermittent treatment group: 1 mg/kg once a day for one week, then twice a week for two weeks.
Setting [6] is: continuous treatment group: 3 mg/kg orally once a day for 5 weeks.
[7] abbreviates: low-dose treatment group (Ia): 3 mg/kg for 2 weeks, then 0.03 mg/kg for 3 weeks.
[8] abbreviates: low-dose treatment group (Ib): 3 mg/kg for 2 weeks, then 0.3 mg/kg for 3 weeks.

As to `COc1ccc2nc(COc3ccc(CC4SC(=O)NC4=O)cc3)n(C)c2c1.Cl` (stereo not shown) [compound A, 5-[4-(6-methoxy-1-methyl-1H-benzimidazol-2-ylmethoxy)benzyl]thiazolidin-2,4-dione hydrochloride], in data set [1], the “results (blood glucose level, red blood cell count, heart weight) compared with Example 1(a)” value is recorded as “Almost the same results to those described above”. The blood glucose level entry was “lowered to a normal range” in data set [2] (setting [4]); “nearly the same level as that in the continuous treatment group” in data set [2] (setting [5]); “lowered to a normal value” in data set [3] (continuous treatment group: 3 mg/kg orally once a day for 5 weeks, FIG. 1). For the same compound, the “red blood cell count” value is recorded as “hemodilution (a decrease in red blood cell count)” in data set [2] (setting [4]); “an increase in red blood cell count” in data set [2] (setting [5]); “hemodilution (a decrease in red blood count)” in data set [3] (setting [6]); “recovered nearly to control level” in data set [3] (setting [7]); “rapidly recovered in dose-dependent manner” in data set [3] (setting [8]). Moreover, the heart weight entry is recorded as “marked increase in heart weight” in data set [2] (setting [4]); “decreased in value compared to that in the continuous treatment group” in data set [2] (setting [5]); “marked increase in heart weight” in data set [3] (setting [6]); “clearly decreased values compared to that in the continuous treatment group” in data set [3] (setting [7]); “clearly decreased values compared to that in the continuous treatment group” in data set [3] (setting [8]). Further, the “blood glucose level (mean) after the decrease to the low dose” value is given as no more than 300 mg/dL in data set [3] (low-dose treatment group (Ia): 3 mg/kg for 2 weeks, then 0.03 mg/kg for 3 weeks, FIG. 1) and no more than 300 mg/dL in data set [3] (low-dose treatment group (Ib): 3 mg/kg for 2 weeks, then 0.3 mg/kg for 3 weeks, FIG. 1).

(Values after patent US20070049515A1, “Therapeutic agent for diabetes containing insulin resistance improving agent” (SANKYO COMPANY, LIMITED, priority 2005, published 2007).)
